Like-named read-outs stand apart in the source and are kept apart here.
Key:
[1] = target: T1, purified recombinant Cdc25-C enzyme (MBP-Cdc25C protein) (Homo sapiens, UniProt P30307); assay: Phosphatase activity of the purified recombinant Cdc25C enzyme (OMFP dephosphorylation, fluorescence); assay type: biochemical; details: OMFP 500 μM, 4 hours at 30° C.
T1 construct: made in house
T1 sequence (P30307 1-473): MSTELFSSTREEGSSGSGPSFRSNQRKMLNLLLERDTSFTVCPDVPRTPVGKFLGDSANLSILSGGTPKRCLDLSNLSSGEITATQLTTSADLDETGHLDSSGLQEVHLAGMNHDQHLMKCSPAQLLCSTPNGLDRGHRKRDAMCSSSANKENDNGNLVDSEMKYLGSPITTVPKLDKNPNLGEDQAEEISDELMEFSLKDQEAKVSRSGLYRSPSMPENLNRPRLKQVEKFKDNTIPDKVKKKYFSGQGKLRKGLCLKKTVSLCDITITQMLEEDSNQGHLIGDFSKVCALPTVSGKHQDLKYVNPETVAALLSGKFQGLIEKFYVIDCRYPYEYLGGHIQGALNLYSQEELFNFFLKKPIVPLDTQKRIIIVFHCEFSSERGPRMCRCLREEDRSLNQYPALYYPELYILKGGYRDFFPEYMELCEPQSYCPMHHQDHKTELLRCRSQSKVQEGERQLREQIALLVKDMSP
Experimental: The phosphatase activity of the MBP-Cdc25C protein is evaluated through its dephosphorylation of 3-O-methylfluorescein-phosphate (OMFP) to form 3-O-methylfluorescein (OMF), determining the fluorescence of the reaction product at 475 nm. This assay can be used to identify inhibitors of the recombinant Cdc25 enzyme. The preparation of the MBP-Cdc25C fusion protein is described in patent application PCT WO 01/44467.
The reaction is performed in 384-well plates in a final volume of 50 μl. The MBP-Cdc25C protein (prepared as described hereinabove) is stored in the following elution buffer: 20 mM Tris-HCl pH 7.4; 250 mM NaCl; 1 mM EDTA; 1 mM dithiothreitol (DTT); 10 mM maltose. It is diluted to a concentration of 60 μM in the following reaction buffer: 50 mM Tris-HCl pH 8.2; 50 mM NaCl; 1 mM DTT; 20% glycerol. The background noise is determined using with the buffer without addition of the enzyme. The products are tested at decreasing concentrations from 40 μM. The reaction is initiated by the addition of a solution OMFP to a final concentration of 500 μM (prepared immediately before use from a 12.5 mM stock solution in 100% DMSO (Sigma #M2629)). After 4 hours at 30° C. in a disposable 384-well plate, the fluorescence measured at OD 475 nm is read on a Victor^2 plate reader (EGG-Wallac). The concentration that produces 50% inhibition of the enzyme reaction is calculated from three independent experiments. Only the values that fall within the linear part of the sigmoid curve are used for the linear regression analysis.

[2] = system: DU145 (human prostate cancer cells); assay: Anti-proliferative activity on DU-145 cell line (WST1 colorimetric test); assay type: cell-based; details: read-out: IC50 on the proliferation of the DU-145 cell line
Experimental: By way of an example, the effect of treating two human cell lines Mia-Paca2 and DU145 with the compounds of the examples described hereinbefore will be studied. The cell lines DU145 (human prostate cancer cells) and Mia-PaCa2 (human pancreas cancer cells) were obtained from the American Tissue Culture Collection (Rockville, Md., USA). A 96-well plate was inoculated on day 0 with cells placed in 80 μl of Dulbecco's modified Eagle's medium (Gibco-Brl, Cergy-Pontoise, France) with 10% heat-inactivated foetal calf serum (Gibco-Brl, Cergy-Pontoise, France), 50000 units/1 of penicillin and 50 mg/l of streptomycin (Gibco-Brl, Cergy-Pontoise, France), and 2 mM of glutamine (Gibco-Brl, Cergy-Pontoise, France). The cells were treated on day 1 with increasing concentrations of each test compound up to 10 μM for 96 hours. At the end of this period, cell proliferation is quantified by means of a colorimetric test based on cleavage of the tetrazolium salt WST1 by the mitochondrial dehydrogenases in the viable cells, resulting in formation of formazan (Boehringer Mannheim, Meylan, France). These tests are performed in duplicate with 8 determinations per concentration tested. For each compound to be tested, the values within the linear part of the sigmoid curve were subjected to linear regression analysis and used to estimate the IC50 inhibitory concentration. The products are solubilised in dimethylsulfoxide (DMSO) at a concentration of 10^−2 M and used in culture with a final DMSO concentration of 0.1%.

[3] = DU-145, 96 h, 96 hours treatment

| Structure (SMILES) | IC50 [1] [µM] | IC50 [2, 3] [µM] | melting point [°C] | IC50 ([2]; DU-145, 96 hours treatment) [µM] |
| --- | --- | --- | --- | --- |
| COc1ccc(NC(=S)NCCN(C)CCNc2cc(N3CCCC3)nc(N3CCCC3)n2)cc1 [Example 35, N-{2-[{2-[(2,6-dipyrrolidin-1-ylpyrimidin-4-yl)amino]ethyl}(methyl)amino]ethyl}-N′-(4-methoxyphenyl)thiourea] | ≤ 5 | ≤ 5 | 127 to 129 |  |
| CN(CCNC(=S)Nc1ccc(Cl)cc1)CCNc1cc(N2CCCCC2)nc(N2CCCCC2)n1 [Example 69, N-(4-chlorophenyl)-N′-{2-[{2-[(2,6-dipiperidin-1-ylpyrimidin-4-yl)amino]ethyl}(methyl)amino]ethyl}thiourea] | ≤ 1 | ≤ 5 | 76 to 78 |  |
| CN(CCNC(=O)N[C@@H]1CCc2ccccc2C1)CCNc1cc(N2CCCC2)nc(N2CCCC2)n1 [Example 11] | ≤ 5 |  |  | ≤ 5 |
| CN(CCNC(=O)NC(C)(C)C)CCNc1cc(N2CCCC2)nc(N2CCCC2)n1 [Example 9, N-(tert-butyl)-N′-{2-[{2-[(2,6-dipyrrolidin-1-ylpyrimidin-4-yl)amino]ethyl}(methyl)amino]ethyl}urea] | ≤ 5 |  | 107 to 109 |  |
| CN(CCNC(=S)Nc1ccc(Cl)c(Cl)c1)CCNc1cc(N2CCCC2)nc(N2CCCC2)n1 [Example 55, N-(3,4-dichlorophenyl)-N′-{2-[{2-[(2,6-dipyrrolidin-1-ylpyrimidin-4-yl)amino]ethyl}(methyl)amino]ethyl}thiourea] | ≤ 5 |  | 148 to 150 |  |
| CN(CCNC(=S)NCC1CCCO1)CCNc1cc(N2CCCC2)nc(N2CCCC2)n1 (centres unmarked) [Example 31, N-{2-[{2-[(2,6-dipyrrolidin-1-ylpyrimidin-4-yl)amino]ethyl}(methyl)amino]ethyl}-N′-(tetrahydrofuran-2-ylmethyl)thiourea] | ≤ 5 |  | 120 to 122 |  |
| O=C(NCCOCCNc1cc(N2CCCC2)nc(N2CCCC2)n1)Nc1ccc(Cl)c(C(F)(F)F)c1 [Example 20, N-[4-chloro-3-(trifluoromethyl)phenyl]-N′-(2-{2-[(2,6-dipyrrolidin-1-ylpyrimidin-4-yl)amino]ethoxy}ethyl)urea] | ≤ 5 |  | 79 to 81 |  |
| CN(CCNC(=S)Nc1ccc(C(F)(F)F)cc1)CCNc1cc(N2CCCC2)nc(N2CCCC2)n1 [Example 25, N-{2-[{2-[(2,6-dipyrrolidin-1-ylpyrimidin-4-yl)amino]ethyl}(methyl)amino]ethyl}-N′-[4-(trifluoromethyl)phenyl]thiourea] |  | ≤ 5 | 87 to 89 |  |
| Cc1noc(C)c1NC(=O)NCCN(C)CCNc1cc(N2CCCC2)nc(N2CCCC2)n1 [Example 13, N-(3,5-dimethylisoxazol-4-yl)-N′-{2-[{2-[(2,6-dipyrrolidin-1-ylpyrimidin-4-yl)amino]ethyl}(methyl)amino]ethyl}urea] | ≤ 1 |  | 95 to 97 |  |
| CN(CCNC(=O)c1ccc(C(=O)c2ccccc2)cc1)CCNc1cc(N2CCCC2)nc(N2CCCC2)n1 [Example 83, 4-benzoyl-N-{2-[{2-[(2,6-dipyrrolidin-1-ylpyrimidin-4-yl)amino]ethyl}(methyl)amino]ethyl}benzamide] | ≤ 5 |  | 119 to 121 |  |
| CN(CCNC(=S)Nc1cccc(F)c1)CCNc1cc(N2CCCC2)nc(N2CCCC2)n1 [Example 39, N-{2-[{2-[(2,6-dipyrrolidin-1-ylpyrimidin-4-yl)amino]ethyl}(methyl)amino]ethyl}-N′-(3-fluorophenyl)thiourea] | ≤ 1 |  | 118 to 120 |  |
| CN(CCNC(=S)Nc1ccc(Oc2ccc([N+](=O)[O-])cc2)cc1)CCNc1cc(N2CCCC2)nc(N2CCCC2)n1 [Example 45, N-{2-[{2-[(2,6-dipyrrolidin-1-ylpyrimidin-4-yl)amino]ethyl}(methyl)amino]ethyl}-N′-[4-(4-nitrophenoxy)phenyl]thiourea] | ≤ 5 | ≤ 5 |  |  |
| CN(CCNC(=NC#N)Nc1ccc(Cl)cc1)CCNc1cc(N2CCCC2)nc(N2CCCC2)n1 [Example 81, N-(4-chlorophenyl)-N″-cyano-N′-{2-[{2-[(2,6-dipyrrolidin-1-ylpyrimidin-4-yl)amino]ethyl}(methyl)amino]ethyl}guanidine] | ≤ 1 |  | 120 to 122 |  |
| CN(CCNC(=S)Nc1ccc(S(N)(=O)=O)cc1)CCNc1cc(N2CCCC2)nc(N2CCCC2)n1 [Example 61, 4-{[({2-[{2-[(2,6-dipyrrolidin-1-ylpyrimidin-4-yl)amino]ethyl}(methyl)amino]ethyl}amino)carbonothioyl]amino}benzenesulfonamide] | ≤ 1 |  | 140 |  |
| CN(CCNC(=S)Nc1ccc(Cl)c(C(F)(F)F)c1)CCNc1cc(N2CCCC2)nc(N2CCCC2)n1 [Example 54, N-[4-chloro-3-(trifluoromethyl)phenyl]-N′-{2-[{2-[(2,6-dipyrrolidin-1-ylpyrimidin-4-yl)amino]ethyl}(methyl)amino]ethyl}thiourea] | ≤ 5 |  | 117 to 119 |  |
| CN(CCNC(=S)Nc1ccc(Cl)c(F)c1)CCNc1cc(N2CCCC2)nc(N2CCCC2)n1 [Example 56, N-(4-chloro-3-fluorophenyl)-N′-{2-[{2-[(2,6-dipyrrolidin-1-ylpyrimidin-4-yl)amino]ethyl}(methyl)amino]ethyl}thiourea] | ≤ 5 |  | 146 to 148 |  |
| CN(CCNC(=S)Nc1ccc(N2CCOCC2)nc1)CCNc1cc(N2CCCC2)nc(N2CCCC2)n1 [Example 32, N-{2-[{2-[(2,6-dipyrrolidin-1-ylpyrimidin-4-yl)amino]ethyl}(methyl)amino]ethyl}-N′-(6-morpholin-4-ylpyridin-3-yl)thiourea] | ≤ 5 |  | 116 to 118 |  |
| CN(CCNC(=S)Nc1ccc([N+](=O)[O-])cc1)CCNc1cc(N2CCCC2)nc(N2CCCC2)n1 [Example 43, N-{2-[{2-[(2,6-dipyrrolidin-1-ylpyrimidin-4-yl)amino]ethyl}(methyl)amino]ethyl}-N′-(4-nitrophenyl)thiourea] | ≤ 1 |  | 146 to 148 |  |
| CN(CCNC(=S)Nc1cccc([N+](=O)[O-])c1)CCNc1cc(N2CCCC2)nc(N2CCCC2)n1 [Example 49, N-{2-[{2-[(2,6-dipyrrolidin-1-ylpyrimidin-4-yl)amino]ethyl}(methyl)amino]ethyl}-N′-(3-nitrophenyl)thiourea] | ≤ 1 |  | 125 to 127 |  |
| CN(CCNC(=S)Nc1ccc(Cl)cc1)CCNc1cc(N2CCCC2)nc(N2CCCC2)n1 [Example 22, N-(4-chlorophenyl)-N′-{2-[{2-[(2,6-dipyrrolidin-1-ylpyrimidin-4-yl)amino]ethyl}(methyl)amino]ethyl}thiourea] | ≤ 1 |  | 127 to 129 |  |
| CN(CCNC(=O)NC1CCCC1)CCNc1cc(N2CCCC2)nc(N2CCCC2)n1 [Example 12, N-cyclopentyl-N′-{2-[{2-[(2,6-dipyrrolidin-1-ylpyrimidin-4-yl)amino]ethyl}(methyl)amino]ethyl}urea] | ≤ 5 |  | 119 to 121 |  |

Reference: patent publication US20100137275A1 (IPSEN PHARMA S.A.S., priority 2007, published 2010)
